According to patent publication US9877956B2, “Antiviral compounds and methods of use thereof” (Trana Discovery, Inc., priority 2014, dated 2018):
Where “and” joins values, the source holds several entries; their conditions need not be identical. Identical values can stand only once.

Assays:
Format in all cases: cell-based
HIV-1/Ba-L = assay: Inhibition of HIV-1 Ba-L replication in PBMC (RT values); details: for % VC: RT relative to virus control; for RT Values (cpm), SAMPLE: individual samples
Procedure: (§1) These compounds were further screened for activity in HIV-1-infected peripheral blood mononuclear cells (PBMC). The data (experiments were repeated, so duplicates are shown) is summarized in the tables below, and also in FIGS. 4A-B and 5A-B.
The HIV strain was HIV-1/Ba-L. The titer was 0.1 μL/well.

[1] = Toxicity in PBMC (Cell Titer 96); details: human, peripheral blood mononuclear cells (PBMC); PBMC, Cell Titer 96
Description: as §1

PBMC = assay: Toxicity in PBMC (Cell Titer 96); details: for % CC: O.D. relative to cell control; for TOXICITY VALUES (Cell Titer 96 - O.D. @ 490/650 nm), SAMPLE: individual samples
Description: as §1

## c1ccc(N/N=C2/CCc3ccccc3N2)cc1 [HIT #154]
HIV-1/Ba-L; 0.01 μM
  RT Values (cpm), MEAN: 29112.2 cpm
  % VC: 98.8%
  RT Values (cpm), SAMPLE: 31907 cpm and 25645 cpm and 29785 cpm
HIV-1/Ba-L; 0.03 μM
  RT Values (cpm), MEAN: 29394.5 cpm
  % VC: 99.8%
  RT Values (cpm), SAMPLE: 28419 cpm and 27673 cpm and 32092 cpm
HIV-1/Ba-L; 0.10 μM
  RT Values (cpm), MEAN: 28793.5 cpm
  % VC: 97.8%
  RT Values (cpm), SAMPLE: 24503 cpm and 28356 cpm and 33522 cpm
HIV-1/Ba-L; 0.32 μM
  RT Values (cpm), MEAN: 28067.5 cpm
  % VC: 95.3%
  RT Values (cpm), SAMPLE: 30361 cpm and 24204 cpm and 29638 cpm
HIV-1/Ba-L; 1.00 μM
  RT Values (cpm), MEAN: 19065.5 cpm
  % VC: 64.7%
  RT Values (cpm), SAMPLE: 18120 cpm and 21373 cpm and 17704 cpm
HIV-1/Ba-L; 3.16 μM
  RT Values (cpm), MEAN: 15141.8 cpm
  % VC: 51.4%
  RT Values (cpm), SAMPLE: 12447 cpm and 16921 cpm and 16058 cpm
HIV-1/Ba-L; 10.0 μM
  RT Values (cpm), MEAN: 12407.5 cpm
  % VC: 42.1%
  RT Values (cpm), SAMPLE: 13978 cpm and 10363 cpm and 12882 cpm
HIV-1/Ba-L; 31.6 μM
  RT Values (cpm), MEAN: 9086.8 cpm
  % VC: 30.9%
  RT Values (cpm), SAMPLE: 10815 cpm and 7472 cpm and 8974 cpm
HIV-1/Ba-L; 100 μM
  RT Values (cpm), MEAN: 2467.8 cpm
  % VC: 8.4%
  RT Values (cpm), SAMPLE: 3062 cpm and 2720 cpm and 1622 cpm
HIV-1/Ba-L; HIV-1 Ba-L in PBMC
  IC 95%: 65.1 µM and >100 µM
HIV-1/Ba-L; TC/IC at 95%
  ANTIVIRAL INDEX (AI) 95%: >1.54
[1]
  CC50: > 100 µM
PBMC; 0.01 μM
  TOXICITY VALUES (Cell Titer 96 - O.D. @ 490/650 nm), MEAN: 0.990 O.D.
  % CC: 119.6%
  TOXICITY VALUES (Cell Titer 96 - O.D. @ 490/650 nm), SAMPLE: 1.163 O.D. and 1.007 O.D. and 0.800 O.D.
PBMC; 0.03 μM
  TOXICITY VALUES (Cell Titer 96 - O.D. @ 490/650 nm), MEAN: 0.810 O.D.
  % CC: 97.9%
  TOXICITY VALUES (Cell Titer 96 - O.D. @ 490/650 nm), SAMPLE: 0.746 O.D. and 0.831 O.D. and 0.853 O.D.
PBMC; 0.10 μM
  TOXICITY VALUES (Cell Titer 96 - O.D. @ 490/650 nm), MEAN: 0.966 O.D.
  % CC: 116.8%
  TOXICITY VALUES (Cell Titer 96 - O.D. @ 490/650 nm), SAMPLE: 1.086 O.D. and 0.970 O.D. and 0.843 O.D.
PBMC; 0.32 μM
  TOXICITY VALUES (Cell Titer 96 - O.D. @ 490/650 nm), MEAN: 0.937 O.D.
  % CC: 113.3%
  TOXICITY VALUES (Cell Titer 96 - O.D. @ 490/650 nm), SAMPLE: 0.736 O.D. and 1.231 O.D. and 0.845 O.D.
PBMC; 1.00 μM
  TOXICITY VALUES (Cell Titer 96 - O.D. @ 490/650 nm), MEAN: 1.077 O.D.
  % CC: 130.2%
  TOXICITY VALUES (Cell Titer 96 - O.D. @ 490/650 nm), SAMPLE: 1.296 O.D. and 1.045 O.D. and 0.892 O.D.
PBMC; 3.16 μM
  TOXICITY VALUES (Cell Titer 96 - O.D. @ 490/650 nm), MEAN: 0.964 O.D.
  % CC: 116.5%
  TOXICITY VALUES (Cell Titer 96 - O.D. @ 490/650 nm), SAMPLE: 1.146 O.D. and 0.903 O.D. and 0.843 O.D.
PBMC; 10.0 μM
  TOXICITY VALUES (Cell Titer 96 - O.D. @ 490/650 nm), MEAN: 0.937 O.D.
  % CC: 113.2%
  TOXICITY VALUES (Cell Titer 96 - O.D. @ 490/650 nm), SAMPLE: 0.712 O.D. and 1.254 O.D. and 0.846 O.D.
PBMC; 31.6 μM
  TOXICITY VALUES (Cell Titer 96 - O.D. @ 490/650 nm), MEAN: 0.962 O.D.
